pIC50, pKi: −log10 of the molar value. Structures can show the parent of a compound that is named as a salt.
Tests used:
[1] = tested on: leukotriene pathway in human whole blood (LTB4); assay: Human whole blood assay (LTB4 after calcium ionophore A23187 stimulation); format: cell-based; conditions: Homo sapiens, human whole blood diluted 1:1 in RPMI, 15 min pre-incubation, A23187 7 μg/mL for 30 min at 37° Celsius
Summary of the method: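 Heparinised human whole blood, diluted 1:1 in RPMI, was preincubated with compound for 15 min at 37° C. before stimulation with A23187 (7 μg/mL) for 30 min. Plasma LTB4 was measured by immunoassay kit and IC50 obtained by 4-parameter fit; single replicate per plate, blood from at least one donor.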

human FLAP = human FLAP (Homo sapiens (Human), UniProt P20292); assay: FLAP binding assay (HTRF format); conditions: human FLAP-containing Sf-9 membranes, 25 nM HTRF ligand, 2 h; average of runs; read-out: FLAP Binding wild type HTRF Ki
Method: The ability of the compounds of the present invention to treat a FLAP-mediated disease and/or disorder, or associated symptoms or complications thereof, was determined using the following procedures. Binding assay data represent the average value obtained from two different assay plates, with samples run in duplicate on each plate. Human whole blood assay data represent a single replicate on an assay plate using whole blood from at least one healthy donor.
The assay below is used to test the modulatory activity of compounds against FLAP. Human and mouse FLAP-encoding DNA was amplified by polymerase chain reaction and cloned into pFastBacl (Invitrogen) with a NH2-terminal 6-His tag for expression in Spodoptera frugiperda (Sf-9) cells. FLAP-containing membranes were prepared as was a FITC-labeled FLAP modulator (3-(3-(tert-butylthio)-1-(4-chlorobenzyl)-5-(quinolin-2-ylmethoxy)-1H-indol-2-yl)-2,2-dimethylpropanoic acid). The FLAP binding assay is performed in HTRF format (homogeneous time resolved fluorescence). […] The reaction is allowed to proceed for two hours after which the plate is read on an Envision plate reader in HTRF mode. Data are expressed as a HTRF ratio.
For human FLAP binding assays, data are analyzed with 3DX Explorer software. […] For analysis, data from multiple runs are averaged and each compound may be tested in 2 to 20 runs. Each run comprises two plates and each plate includes duplicates. Data from each plate is averaged and data are imported into 3DX. The data from multiple runs are aggregated as the average of duplicates of the calculated ratios in order to calculate Ki and IC50 values. Numbers in parentheses are the number of runs for the assay.

human FLAP, sequence (P20292 whole entry): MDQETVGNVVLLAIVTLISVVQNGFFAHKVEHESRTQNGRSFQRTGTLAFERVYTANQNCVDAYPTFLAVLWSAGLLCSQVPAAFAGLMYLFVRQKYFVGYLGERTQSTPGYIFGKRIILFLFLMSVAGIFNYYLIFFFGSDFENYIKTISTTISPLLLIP

SMILES | pIC50 [1] | pKi (human FLAP)
Cc1ccc(Cn2c(C3[C@@H](C(=O)O)C3(C)C)nc3c(F)cc(OCc4ccc(C)cn4)cc32)cc1 (mixture of isomers) [Example 64, racemic cis-3-{4-Fluoro-1-(4-methylbenzyl)-6-[(5-methylpyridin-2-yl)methoxy]-1H-benzimidazol-2-yl}-2,2-dimethylcyclopropanecarboxylic acid as the TFA salt] | 5.48 | 6.54
Cn1ccc(COc2ccc3nc([C@@H]4CCCC[C@@H]4C(=O)O)n(Cc4ccc(N5CC(F)(F)C5)cc4)c3c2)n1 (racemic) [Example 89, racemic cis-2-{1-[4-(3,3-Difluoroazetidin-1-yl)benzyl]-6-[(1-methyl-1H-pyrazol-3-yl)methoxy]-1H-benzimidazol-2-yl}cyclohexanecarboxylic acid] | 5.44 | 7.49
Cc1ccc(COc2cc(F)c3nc(CC4(C(=O)O)CCCC4)n(Cc4ccc(Br)cc4)c3c2)nc1 [Example 61, 1-({1-(4-Bromobenzyl)-4-fluoro-6-[(5-methylpyridin-2-yl)methoxy]-1H-benzimidazol-2-yl}methyl)cyclopentanecarboxylic acid] | 5.64 | 8.22
Cn1ccc(COc2ccc3nc([C@@H]4CCCC[C@@H]4C(=O)O)n(Cc4cccc(-c5ccc(C(F)(F)F)cc5)c4)c3c2)n1 (racemic) [Example 150, racemic cis-2-(6-[(1-Methyl-1H-pyrazol-3-yl)methoxy]-1-{[4′-(trifluoromethyl)biphenyl-3-yl]methyl}-1H-benzimidazol-2-yl)cyclohexanecarboxylic acid] | 6.85 | 8.85
Cc1ccc(COc2ccc3nc([C@@H]4CCCC[C@@H]4C(=O)O)n(Cc4ccc(OC(F)(F)F)cc4C)c3c2)nc1 (racemic) [Example 100, racemic cis-2-{6-[(5-Methylpyridin-2-yl)methoxy]-1-[2-methyl-4-(trifluoromethoxy)benzyl]-1H-benzimidazol-2-yl}cyclohexanecarboxylic acid] | 5.60 | 7.72
Cc1cnc(COc2ccc3nc(CC(C)(C)C(=O)O)n(Cc4ccc(-c5ccc(C(F)(F)F)cc5)cc4)c3c2)c(F)c1 [Example 142, 3-(6-[(3-Fluoro-5-methylpyridin-2-yl)methoxy]-1-{[4′-(trifluoromethyl)biphenyl-4-yl]methyl}-1H-benzimidazol-2-yl)-2,2-dimethylpropanoic acid] | 6.01 | 8.13
Cc1ccc(COc2ccc3nc(C4CCCC[C@H]4C(=O)O)n(Cc4ccc(N5CCC(F)(F)CC5)cc4F)c3c2)nc1 (mixture of isomers) [Example 161, racemic cis-2-{1-[4-(4,4-Difluoropiperidin-1-yl)-2-fluorobenzyl]-6-[(5-methylpyridin-2-yl)methoxy]-1H-benzimidazol-2-yl}cyclohexanecarboxylic acid] | 6.52 | 8.40
Cn1cc(Cl)c(COc2ccc3nc([C@@H]4CCCC[C@@H]4C(=O)O)n(Cc4ccc(-c5ccc(C(F)(F)F)cc5)cc4)c3c2)n1 (racemic) [Example 151, racemic cis-2-(6-[(4-Chloro-1-methyl-1H-pyrazol-3-yl)methoxy]-1-{[4′-(trifluoromethyl)biphenyl-4-yl]methyl}-1H-benzimidazol-2-yl)cyclohexanecarboxylic acid] | 6.04 | 7.89
Cc1ccc(COc2ccc3nc([C@H]4CCCC[C@H]4C(=O)O)n(Cc4ccc(-c5ncc(Cl)cn5)cc4)c3c2)nc1 (racemic) [Example 80, racemic cis-2-{1-[4-(5-Chloropyrimidin-2-yl)benzyl]-6-[(5-methylpyridin-2-yl)methoxy]-1H-benzimidazol-2-yl}cyclohexanecarboxylic acid] | 6.52 | 8.48
Cc1cnc(COc2ccc3nc([C@@H]4[C@H](C(=O)O)C4(C)C)n(Cc4ccc(Br)cc4)c3c2)c(F)c1 (racemic) [Example 132, racemic cis-3-{1-(4-Bromobenzyl)-6-[(3-fluoro-5-methylpyridin-2-yl)methoxy]-1H-benzimidazol-2-yl}-2,2-dimethylcyclopropanecarboxylic acid] | 6.57 | 8.54
Cc1ccc(COc2ccc3nc([C@H]4CCCC[C@H]4C(=O)O)n(Cc4cccc(-c5ccc(C(F)(F)F)cc5)c4)c3c2)nc1 (racemic) [Example 145, racemic cis-2-(6-[(5-Methylpyridin-2-yl)methoxy]-1-{[4′-(trifluoromethyl)biphenyl-3-yl]methyl}-1H-benzimidazol-2-yl)cyclohexanecarboxylic acid] | 6.04 | 8.14
Cc1cnc(COc2ccc3nc(CC(C)(C)C(=O)O)n(Cc4ccc(N5CCC(F)CC5)cc4F)c3c2)c(F)c1 [Example 186] | 6.15 | 7.52
Cc1ccc(COc2ccc3nc([C@H]4CCCC[C@H]4C(=O)O)n(Cc4c(F)cc(-c5ccc(C(F)(F)F)cc5)cc4F)c3c2)nc1 (racemic) [Example 138, racemic cis-2-(1-{[3,5-Difluoro-4′-(trifluoromethyl)biphenyl-4-yl]methyl}-6-[(5-methylpyridin-2-yl)methoxy]-1H-benzimidazol-2-yl)cyclohexanecarboxylic acid] | 7.01 | 8.60
Cc1ccc(COc2ccc3nc(C4CCCC[C@H]4C(=O)O)n(Cc4ccc(C#N)cc4)c3c2)nc1 (mixture of isomers) [Example 37, racemic cis-2-{1-(4-Cyanobenzyl)-6-[(5-methylpyridin-2-yl)methoxy]-1H-benzimidazol-2-yl}cyclohexanecarboxylic acid as the TFA salt] | 6.17 | 7.59
Cc1ccc(COc2ccc3nc(C4CCCC[C@@H]4C(=O)O)n(Cc4ccc(C#N)cc4)c3c2)nc1 (mixture of isomers) [Example 18, racemic trans-2-{1-(4-Cyanobenzyl)-6-[(5-methylpyridin-2-yl)methoxy]-1H-benzimidazol-2-yl}cyclohexanecarboxylic acid as the TFA salt] | < 5.00 | 7.28
Cc1cnc(COc2ccc3nc(CC(C)(C)C(=O)O)n(Cc4ccc(OC(F)(F)F)cc4F)c3c2)c(F)c1 [Example 131, 3-{6-[(3-Fluoro-5-methylpyridin-2-yl)methoxy]-1-[2-fluoro-4-(trifluoromethoxy)benzyl]-1H-benzimidazol-2-yl}-2,2-dimethylpropanoic acid] | 5.41 | 7.62
Cc1cnc(COc2ccc3nc([C@H]4CCCC[C@H]4C(=O)O)n(Cc4ccc(-c5ccc(C(F)(F)F)cc5)cc4)c3c2)c(F)c1 (single isomer, unassigned) [Example 139, (1R*,2S*)-2-(6-[(3-Fluoro-5-methylpyridin-2-yl)methoxy]-1-{[4′-(trifluoromethyl)biphenyl-4-yl]methyl}-1H-benzimidazol-2-yl)cyclohexanecarboxylic acid] | 6.85 | 9.33
Cn1ccc(COc2cc(F)c3nc([C@H]4CCCC[C@H]4C(=O)O)n(Cc4ccc(OC(F)(F)F)cc4F)c3c2)n1 (racemic) [Example 96, racemic cis-2-{4-Fluoro-1-[2-fluoro-4-(trifluoromethoxy)benzyl]-6-[(1-methyl-1H-pyrazol-3-yl)methoxy]-1H-benzimidazol-2-yl}cyclohexanecarboxylic acid as the HCl salt] | 6.09 | 8.15
Cc1cnc(COc2ccc3nc(CC(C)(C)C(=O)O)n(Cc4ccc(N5CCC(C(C)(C)C)CC5)cc4)c3c2)c(F)c1 [Example 184, 3-{1-[4-(4-tert-Butylpiperidin-1-yl)benzyl]-6-[(3-fluoro-5-methylpyridin-2-yl)methoxy]-1H-benzimidazol-2-yl}-2,2-dimethylpropanoic acid] | 6.10 | 7.82
Cn1cc(Cl)c(COc2ccc3nc([C@@H]4CCCC[C@@H]4C(=O)O)n(Cc4ccc(N5CCCCC5)cc4)c3c2)n1 (racemic) [Example 82, racemic cis-2-{6-[(4-Chloro-1-methyl-1H-pyrazol-3-yl)methoxy]-1-(4-piperidin-1-ylbenzyl)-1H-benzimidazol-2-yl}cyclohexanecarboxylic acid] | 6.77 | 8.10
Cn1ccc(COc2cc(F)c3nc([C@@H]4CCCC[C@@H]4C(=O)O)n(Cc4ccc(OC(F)(F)F)cc4)c3c2)n1 (racemic) [Example 95, racemic cis-2-{4-Fluoro-6-[(1-methyl-1H-pyrazol-3-yl)methoxy]-1-[4-(trifluoromethoxy)benzyl]-1H-benzimidazol-2-yl}cyclohexanecarboxylic acid as the HCl salt] | 5.87 | 8.44
Cn1ccc(COc2ccc3nc([C@@H]4[C@H](C(=O)O)C4(C)C)n(Cc4ccc(Br)cc4)c3c2)n1 (racemic) [Example 134, racemic cis-3-{1-(4-Bromobenzyl)-6-[(1-methyl-1H-pyrazol-3-yl)methoxy]-1H-benzimidazol-2-yl}-2,2-dimethylcyclopropanecarboxylic acid] | 6.07 | ~6.30
